{"source": "patent US10238670B2", "about": "“9-aminomethyl minocycline compounds and methods of use thereof in urinary tract infection (UTI) treatment” (Paratek Pharmaceuticals, Inc., priority 2016, dated 2019)", "key": {"[1]": {"assay": "In vitro plasma protein binding (ultrafiltration), rat plasma", "type": "in vitro ADME, rat (HanWistar)", "conditions": "HanWistar, 10-10,000 ng/mL, mean±SD, read-out: mean unbound protein fraction (fu) in plasma", "procedure": "(§1) For human binding studies, plasma was obtained from the blood of three healthy male volunteers. Plasma was defrosted from storage at -20° C. before use, and pools of human plasma were used for all studies. Plasma from mouse, rat, and monkey was supplied by Harlan Laboratories Ltd. (Netherlands), Milan […], Switzerland) and Centre de Primatologie ULP (France), respectively. Protein binding was measured using an ultrafiltration method. To asses the suitability of ultrafiltration, the recovery and free permeation of [^14C]-labelled Compound 1 in PBS buffer were investigated. […] Three 1 mL aliquots per concentration were introduced into […]® devices and spun for 1 min at 2000 g (filtrate ≤500 μL). Samples of the spiked solutions, the filtrate and retentate were quantified by LSC; volumes were determined by weighing. The free permeation of the test compound in PBS was evaluated as follows: Ratio=[Cuf/Cr] with Cuf being the concentration in the ultrafiltrate (ng/mL) and Cr the concentration in the retentate (ng/mL). […] Specifically, concentrations of Compound 1 was determined by an UPLC-MS/MS method. […] The ions monitored for Compound 1 was the parent [M+H]^+ ion at m/z 557.3.0; the product ions at m/z 453.4. […] The quantification was performed using Analyst software and Watson LIMS version 7.2.0.01. […] The lower limit of quantitation was 5.0 ng/mL for Compound 1."}, "[2]": {"tested_on": "plasma proteins", "assay": "In vitro plasma protein binding (ultrafiltration), rat plasma", "type": "in vitro ADME, rat (HanWistar)", "conditions": "10-10,000 ng/mL", "procedure": "as §1"}, "[3]": {"tested_on": "E. coli (ATCC 25922) biofilm", "assay": "MBEC assay, inhibition of biofilm formation", "type": "cell-based, Escherichia coli", "procedure": "The MBEC™ assay (formerly the Calgary biofilm device; Innovotech Inc., Canada) is a well-established high throughput assay for assessment of anti-biofilm activity of test agents in a 96-well format. Within this assay, the biofilm is formed on the plastic pegs of the plate lid. After inoculated media is introduced to the wells of the 96-well plate, the plate is placed in a shaking incubator to generate the necessary shear force for biofilm growth on the pegs. Following a suitable incubation time, the individual biofilms can be treated with varying concentrations of test agents (challenge plate). After the desired treatment time, the remaining biofilm-associated bacteria are retrieved from the pegs through sonication (recovery plate). Serial dilution and/or plating of the recovered bacterial suspension allow for the quantification of test agents' efficacy against pre-formed biofilms. Additionally, readout of the challenge plate from the biofilm treatment can be used to determine MIC values of test agents. The absence of growth in the recovery plate indicates complete biofilm eradication and the lowest concentration of a test agent that achieves this is designated as the minimum biofilm eradication concentration (MBEC). The MBEC™ assay is also amenable to assess potential synergistic effects of combination treatments, as well as efficacy of test agents in inhibiting or inducing biofilm formation.\nThe MBEC™ plates were inoculated with either 10^5 CFU/mL (low inoculum) or 10^7 CFU/mL (high inoculum) of stationary phase E. coli (ATCC 25922) with simultaneous addition of antibiotics to evaluate the progression of biofilm formation under antibiotic challenge. After 24 hour incubation, the bacteria were recovered and enumerated (as above). FIG. 6. […] FIG. 7."}, "[4]": {"tested_on": "Citrobacter spp.", "assay": "In vitro MIC, 2010 surveillance isolates", "type": "cell-based", "conditions": "N=253"}}, "data": [{"smiles": "CN(C)c1cc(CNCC(C)(C)C)c(O)c2c1C[C@H]1C[C@H]3[C@H](N(C)C)C(O)=C(C(N)=O)C(=O)[C@@]3(O)C(O)=C1C2=O", "note": "[Compound 1, 9-[(2,2-dimethyl-propylamino)-methyl]-minocycline]", "values": [{"measurement": "fraction unbound", "setting": "[1]", "result": "0.739 ± 0.121"}, {"measurement": "Mean (SD) Bound Fraction", "setting": "[2]", "result": "26.1 (12.3) %"}, {"measurement": "less bioburden of biofilm compared to control", "setting": "[3]; 0.183 μg/mL (approx. 15% of MIC)", "result": "approx. 2 log units"}, {"measurement": "lower total bioburden of biofilm vs controls", "setting": "[3]; 0.743 μg/mL, 24 hour incubation", "result": "3-4 log units"}, {"measurement": "reduction of mean biofilm formation compared to controls", "setting": "[3]; 0.74 p g/mL, high and low inoculum conditions, respectively", "result": "3 to 4", "unit": "log units"}, {"measurement": "inhibition of biofilm formation", "setting": "[3]; all doses above the MIC", "result": "strongly inhibits biofilm formation"}, {"measurement": "induction of biofilm formation", "setting": "[3]; sub-MIC doses", "result": "fail to induce biofilm formation"}, {"measurement": "Cumulative % Inhibition at MIC", "setting": "[4]; MIC 1 μg/ml", "result": 44.7, "unit": "%"}, {"measurement": "Cumulative % Inhibition at MIC", "setting": "[4]; MIC 2 μg/ml", "result": 79.1, "unit": "%"}, {"measurement": "Cumulative % Inhibition at MIC", "setting": "[4]; MIC 4 μg/ml", "result": 93.3, "unit": "%"}, {"measurement": "Cumulative % Inhibition at MIC", "setting": "[4]; MIC 8 μg/ml", "result": 97.6, "unit": "%"}, {"measurement": "Cumulative % Inhibition at MIC", "setting": "[4]; MIC 16 μg/ml", "result": 100, "unit": "%"}, {"measurement": "Cumulative % Inhibition at MIC", "setting": "[4]; MIC ≤0.5 μg/ml, listed as head image P00016", "result": 14.6, "unit": "%"}]}]}
